Results published in patent publication US11135457B2, “Skincare compositions” (Reckitt Benckiser Healthcare International Limited, priority 2009, dated 2021).

Tests used:
Assay type in all cases: cell-based
TNF-α = assay: In vitro EpiDerm skin model, PMA irritant: TNF-α release; conditions: for TNFα + PMA / TNFα no PMA: EpiDerm skin model; for TNFα + PMA: + PMA irritant; for TNFα no PMA: no PMA irritant
Method: (§1) The purpose of the in vitro testing was to evaluate the potential anti-inflammatory action of compositions according to the present invention.
(§2) In vitro tests were carried out as follows: • take an irritant treated EpiDerm™ skin model. Initial inflammation was measured by the cytokine release after exposure to a single dose of irritant. • apply test compositions to the irritant treated EpiDerm skin • anti-inflammatory potential was then measured by reduction in cytokine release • specifically, the levels of cytokines TNF-α, IL-6 and IL-8 were measured to give a picture of the performance of the product across the lifecycle of an acne event or related skin inflammation.
(§3) Experimental design follows standard procedures, using phorbol-12-myristate 13-acetate (PMA) as irritant. Test samples were applied by pipette as solutions to the Epiderm tissue, and each sample was tested in triplicate against positive and negative controls. Anti-inflammatory activity measured by relative decrease in cytokine release in irritant-treated tissue compared to non-irritant treated tissue.
(§4) The separate active components of an example according to the invention were tested, along with some combinations in pairs and one combination lacking the salicylic acid. Where these actives were applied, they were in the same w/w ratio as in the example composition, example 9.

IL-6 = assay: In vitro EpiDerm skin model, PMA irritant: IL-6 release; conditions: for IL-6 + PMA: + PMA irritant; for IL-6 no PMA: no PMA irritant
Method: as §1, §2, §3, §4

IL-8 = assay: In vitro EpiDerm skin model, PMA irritant: IL-8 release; conditions: no PMA irritant (first IL-8 column, c6)
Method: as §1, §2, §3, §4

EpiDerm skin model = assay: MTT viability, EpiDerm skin model

| SMILES | TNFα + PMA (TNF-α) | TNFα no PMA (TNF-α) | IL-6 + PMA (IL-6) | IL-6 no PMA (IL-6) | IL-8 no PMA (IL-8) | MTT < 95% (EpiDerm skin model) | anti-inflammatory action (reduction in cytokine release) (TNF-α; irritant (PMA) treated EpiDerm skin model, cytokines TNF-α, IL-6 and IL-8 taken together) |
| --- | --- | --- | --- | --- | --- | --- | --- |
| CC1(C)[C@@H](O[C@H]2O[C@H](C(=O)[O-])[C@@H](O)[C@H](O)[C@H]2O[C@@H]2O[C@H](C(=O)[O-])[C@@H](O)[C@H](O)[C@H]2O)CC[C@]2(C)[C@H]3C(=O)C=C4[C@@H]5C[C@@](C)(C(=O)O)CC[C@]5(C)CC[C@@]4(C)[C@]3(C)CC[C@@H]12.[K+].[K+] [Dipotassium glycyrrhizinate (GLYR)] | 78.48 pg/mL | -0.636 pg/mL | 7.591 pg/mL | -1.781 pg/mL | 44.413 pg/mL | 93.7% | – |
| NC(=O)c1cccnc1 [Nicotinamide (NA)] | 40.202 pg/mL | -0.171 pg/mL | -2.712 pg/mL | -4.294 pg/mL | 47.54 pg/mL | 96.8% | – |
| C[C@]12CCC(=O)C=C1CC[C@@H]1[C@@H]2[C@@H](O)C[C@@]2(C)[C@H]1CC[C@]2(O)C(=O)CO [Positive control (hydrocortisone)] | -0.378 pg/mL | – | -4.358 pg/mL | – | – | – | – |
| O=C(O)c1ccccc1O [Salicylic acid (SCA)] | 12.265 pg/mL | -0.068 pg/mL | 6.159 pg/mL | -1.445 pg/mL | 72.757 pg/mL | 103.2% | – |
| CC(O)C(=O)[O-].[Na+] (stereo not drawn) [Sodium Lactate (SLA)] | 92.434 pg/mL | 0.882 pg/mL | 22.6 pg/mL | 4.909 pg/mL | 104.549 pg/mL | 99.1% | – |
| O=C(O)c1ccccc1O [salicylic acid, reference compound] | – | – | – | – | – | – | acts inter alia as an anti-inflammatory |
